Experimental data as given in patent US20250134871A1, “UPR MODULATORS TO TREAT HEARING LOSS” (JACARANDA BIOSCIENCES, INC., priority 2021, published 2025).

System: CHOP
Experiment: ER stress induction in HEK cells treated with compounds (CHOP mRNA, qPCR)
Assay type: cell-based
Details: HEK 293 cells, 0.5 μM thapsigargin and 0.1 to 5.0 μM of each drug for 2 hours; CHOP mRNA by qPCR, ΔΔCt vs GAPDH
Protocol: HEK 293 cells were cultured in DMEM with 10% FBS, Pen/Strep in 5% CO2, at 37° C. in incubator. Cells were split and seeded at approximately 2×10^4 cells in each well of 96-well plate one day before treatment. Cells were grown in good shape and passaged one or two times before testing.
Cells were treated with 0.5 μM thapsigargin and 0.1 to 5.0 μM of each drug for 2 hours. The cells were then harvested, pelleted and treated to ready for testing mRNA abundance for specific UPR genes from cells in the PCR reaction using the TaqMan™ Gene Expression Cells-to-CT™ Kit (Thermo Fisher). Prescreened primers were ordered from Bio-Rad. The gene tested is CHOP, (the C/EBP Homologous Protein). These markers were compared against GAPDH. The qPCR system we used was CFX 384 Real time (Bio-Rad). Samples were measured in triplicates and relative quantification, by the ΔΔCt-method, using GAPDH as reference. The biological results are summarized in Table 1 where A represents a greater than 50% reduction in CHOP signal in compound-treated versus untreated cells, B represents a 20% to 50% reduction in CHOP signal, and C represents a 1% to 20% reduction in CHOP signal.

Row | Compound | CHOP reduction
1 | O=C(COc1ccccc1)Nc1ccc(NC(=O)COc2ccccc2)cc1 [Compound A1, 2-Phenoxy-N-[4-(2-phenoxyacetylamino)phenyl]acetamide] | A (A represents a greater than 50% reduction in CHOP signal in compound-treated versus untreated cells)
2 | O=C(COc1ccc(Cl)cc1)Nc1ccc(NC(=O)COc2ccc(Cl)cc2)cc1 [Compound A2, 2-(4-Chlorophenoxy)-N-[4-[[2-(4-chlorophenoxy)acetyl]amino]phenyl]acetamide] | B (B represents a 20% to 50% reduction in CHOP signal)
3 | CC(C)(C)c1ccc(OCC(=O)Nc2ccc(NC(=O)COc3ccc(C(C)(C)C)cc3)cc2)cc1 [Compound A3, N,N′-Benzene-1,4-diylbis [2-(4-tert-butylphenoxy)acetamide]] | C (C represents a 1% to 20% reduction in CHOP signal)
4 | Cc1ccc(OCC(=O)Nc2ccc(NC(=O)COc3ccc(C)cc3)cc2)cc1 [Compound A4, N,N′-Benzene-1,4-diylbis [2-(4-methylphenoxy)acetamide]] | C (C represents a 1% to 20% reduction in CHOP signal)
5 | O=C(COc1ccccc1)Nc1ccc(NC(=O)COc2ccccc2)nc1 [Compound B1, 2-Phenoxy-N-[6-[[2-phenoxyacetyl]amino]pyridin-3-yl]acetamide] | C (C represents a 1% to 20% reduction in CHOP signal)
6 | O=C(COc1ccc(Cl)cc1)Nc1ccc(NC(=O)COc2ccc(Cl)cc2)nc1 [Compound B2, 2-(4-Chlorophenoxy)-N-[6-[[2-(4-chlorophenoxy)acetyl]amino]pyridin-3-yl]acetamide] | A (A represents a greater than 50% reduction in CHOP signal in compound-treated versus untreated cells)
7 | Cc1ccc(OCC(=O)Nc2ccc(NC(=O)COc3ccc(C)cc3)nc2)cc1 [Compound B3, 2-(4-Methylphenoxy)-N-[6-[[2-(4-methylphenoxy)acetyl]amino]pyridin-3-yl]acetamide] | B (B represents a 20% to 50% reduction in CHOP signal)
8 | O=C(COc1ccccc1)Nc1cnc(NC(=O)COc2ccccc2)c(Br)c1 [Compound B4, 2-Phenoxy-N-[5-bromo-6-[[2-phenoxyacetyl]amino]pyridin-3-yl]acetamide] | C (C represents a 1% to 20% reduction in CHOP signal)
9 | O=C(COc1ccc(Cl)cc1)Nc1cnc(NC(=O)COc2ccc(Cl)cc2)c(Br)c1 [Compound B5, 2-(4-Chlorophenoxy)-N-[5-bromo-6-[[2-(4-chlorophenoxy)acetyl]amino]pyridin-3-yl]acetamide] | C (C represents a 1% to 20% reduction in CHOP signal)
10 | Cc1ccc(OCC(=O)Nc2cnc(NC(=O)COc3ccc(C)cc3)c(Br)c2)cc1 [Compound B6, 2-(4-Methylphenoxy)-N-[5-bromo-6-[[2-(4-methylphenoxy)acetyl]amino]pyridin-3-yl]acetamide] | C (C represents a 1% to 20% reduction in CHOP signal)
11 | CC(C)(C)c1ccc(OCC(=O)Nc2cnc(NC(=O)COc3ccc(C(C)(C)C)cc3)c(Br)c2)cc1 [Compound B7, 2-(4-tert-Butylphenoxy)-N-[5-bromo-6-[[2-(4-tert-butylphenoxy)acetyl]amino]pyridin-3-yl]acetamide] | B (B represents a 20% to 50% reduction in CHOP signal)
12 | Cc1cc(NC(=O)COc2ccccc2)ccc1NC(=O)COc1ccccc1 [Compound C1, 2-Phenoxy-N-[2-methyl-4-(2-phenoxyacetylamino)phenyl]acetamide] | B (B represents a 20% to 50% reduction in CHOP signal)
13 | Cc1cc(NC(=O)COc2ccc(Cl)cc2)ccc1NC(=O)COc1ccc(Cl)cc1 [Compound C2, 2-(4-Chlorophenoxy)-N-[2-methyl-4-[[2-(4-chlorophenoxy)acetyl]amino]phenyl]acetamide] | A (A represents a greater than 50% reduction in CHOP signal in compound-treated versus untreated cells)
14 | O=C(COc1ccccc1)Nc1ccc(NC(=O)COc2ccccc2)c(Cl)c1 [Compound C5, 2-Phenoxy-N-[2-chloro-4-(2-phenoxyacetylamino)phenyl]acetamide] | B (B represents a 20% to 50% reduction in CHOP signal)
15 | O=C(COc1ccc(Cl)cc1)Nc1ccc(NC(=O)COc2ccc(Cl)cc2)c(Cl)c1 [Compound C6, 2-(4-Chlorophenoxy)-N-[2-chloro-4-[[2-(4-chlorophenoxy)acetyl]amino]phenyl]acetamide] | A (A represents a greater than 50% reduction in CHOP signal in compound-treated versus untreated cells)
16 | Cc1ccc(OCC(=O)Nc2ccc(NC(=O)COc3ccc(C)cc3)c(Cl)c2)cc1 [Compound C7, N,N′-2-Chlorobenzene-1,4-diylbis[2-(4-methylphenoxy)acetamide]] | C (C represents a 1% to 20% reduction in CHOP signal)
17 | CC(C)(C)c1ccc(OCC(=O)Nc2ccc(NC(=O)COc3ccc(C(C)(C)C)cc3)c(Cl)c2)cc1 [Compound C8, N,N′-2-Chlorobenzene-1,4-diylbis[2-(4-tert-butylphenoxy)acetamide]] | B (B represents a 20% to 50% reduction in CHOP signal)

System: hearing loss from noise exposure
Experiment: not given
Details: after a transient threshold shift; cited from earlier work

Row | Compound | cochlear synaptopathy after a transient threshold shift
18 | O=C(COc1ccc(Cl)cc1)NC1CCC(NC(=O)COc2ccc(Cl)cc2)CC1 (stereo not shown) [ISRIB] | can prevent cochlear synatopathy after a transient threshold shift

Same assay, conditions: mice, noise exposure; cited from earlier work

Row | Compound | hearing loss from noise exposure (permanent threshold shift)
19 | O=C(COc1ccc(Cl)cc1)NC1CCC(NC(=O)COc2ccc(Cl)cc2)CC1 (stereo not shown) [ISRIB] | can prevent hearing loss in mice from noise exposure
